This note sets out measurements from patent publication US7067538B2, “MCP-1 receptor antagonists and methods of use thereof” (Warner-Lambert Company, LLC, priority 2002, dated 2006).

Data set [1] concerns MCP-1 response in THP-1 cells. As to the kind of experiment: Calcium flux in THP-1 cells stimulated with human MCP-1 (FLIPR). The conditions noted are these: read-out: Calcium Flux IC50. It is filed as cell-based. On the procedure:
Compounds of were evaluated for their effect on calcium flux using methodology known in the art, e.g., Neote et al., Cell 1993, 72:415–425. Briefly, THP-1 cells were incubated with the fluorescence dye FLUO-4 for 1 hour, the cells were washed after this loading period, resuspended in HANKs buffer, and loaded into a 384-well plate. The cells were then incubated in the presence of a compound of Example 1–12, 14, 18, 22–23, 27–28, 30, or [bis-(4-chloro-phenyl)-methanesulfonyl]-acetic acid methyl ester. After a 30-minute incubation period, the cells were stimulated with 33 nM human MCP-1 and the calcium flux response recorded and quantified with a FLIPR^384® (384-well Fluorometric Imaging Plate Reader) ([…], Sunnyvale, Calif.). The IC50's (μM) of the inhibition of the maximal MCP-1 response are set out in Table 1.
In general terms: Calcium flux is commonly read through the fluorescence of an indicator in the cells.

In data set [2] the target is T1, MCP-1 receptor (300-19 cell membranes) (Homo sapiens, UniProt P41597).
T1 construct: host or cells: 300-19 cells (membrane preparation)
T1 sequence (P41597 whole entry): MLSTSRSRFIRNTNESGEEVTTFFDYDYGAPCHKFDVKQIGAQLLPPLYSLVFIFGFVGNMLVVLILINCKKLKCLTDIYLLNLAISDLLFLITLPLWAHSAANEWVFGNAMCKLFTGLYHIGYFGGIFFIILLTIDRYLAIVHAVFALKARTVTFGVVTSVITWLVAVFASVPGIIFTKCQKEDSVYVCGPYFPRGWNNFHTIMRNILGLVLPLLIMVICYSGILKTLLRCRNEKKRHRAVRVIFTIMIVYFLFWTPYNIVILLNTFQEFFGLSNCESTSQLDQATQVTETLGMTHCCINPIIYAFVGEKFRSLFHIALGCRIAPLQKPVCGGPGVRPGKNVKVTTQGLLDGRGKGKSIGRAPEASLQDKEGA
The data set can be described thus: Inhibition of binding of 125I-MCP-1 to 300-19 cell membranes. As to the method: Compounds were also assayed for their ability to inhibit the binding of radiolabeled MCP-1 to cell membranes. The materials and methods are set out below.
Membrane Preparation. 300-19 cells were harvested by centrifugation and washed with PBS (Dulbecco's phosphate-buffered saline w/o Ca and Mg). Cells were frozen at −80° C. overnight then resuspensed in ice cold lysis buffer (5 mM HEPES, 2 mM EDTA, 10 μg/mL of leupeptin, aprotinin, and chymostatin, and 200 μg/mL PMSF). The cell suspension was centrifuged at 1,000 rpm for 10 minutes and the supernatant was transferred and centrifuged at 14,000 rpm for 45 minutes at 4° C. then discarded. The resulting pellet was resuspended in stock buffer (10 mM HEPES, 300 mM sucrose, 20 μg/mL of leupeptin, aprotinin, and chymostatin, and 200 μg/mL PMSF), aliquoted, and frozen at −80° C. until use. Typical binding assays used 1.0 μg/well protein.
Prepared membranes were resuspended in binding buffer (50 mM Tris, 10 mM MgCl2, 1 mM EDTA pH 7.4) at 10 μg/mL protein. Membranes (1.0 μg/well) were incubated with ^125I-MCP-1 (0.15 nM) in the absence or presence of unlabeled chemokine (465 nM) or a compound of Examples 1–11, 14, 16, 19, 22, 27–30, 33–34, or [bis-(4-chloro-phenyl)-methanesulfonyl]-acetic acid methyl ester (0.001 μM–40 μM) for 3 hours at room temperature in a 96-well plate (total volume 250 μL). The reaction was terminated by filtration using a 96-well plate harvester (Packard Filtermate 196 Harvester). Filters (Packard GF/C) were prewet with 0.3% PEI containing 0.5% BSA and washed 5 times with wash buffer (DPBS, 0.3 MnCl2, and 0.25% BSA) prior to reaction termination. After terminating the reaction, filters were washed 6 times with wash buffer, and allowed to dry overnight. Scintillation fluid (Packard's Micro Scint 20) was added to each well and radioactivity bound was determined by liquid scintillation spectrometry. Nonspecific binding was determined in the presence of 465 nM unlabeled MCP-1. The IC50's (μM) of the inhibition of the binding of the iodinated MCP-1 are set out in Table 2.

The mark [3] stands for this setting: 0.5 h, THP-1 cells, 30-minute incubation, stimulated with 33 nM human MCP-1, inhibition of the maximal MCP-1 response.
[4] abbreviates: 300-19 cell membranes 1.0 μg/well, 125I-MCP-1 0.15 nM, 3 hours at room temperature, read-out: IC50 of the inhibition of the binding of the iodinated MCP-1.

Read-outs that look alike come from different tables or passages of the source.

Consider `O=C(COc1ccc(F)cc1F)CS(=O)(=O)C(c1ccc(Cl)cc1)c1ccc(Cl)cc1`, for which the melting point is 54 to 56 °C. The compound `C/C=C/C(=O)CS(=O)(=O)C(c1ccc(Cl)cc1)c1ccc(Cl)cc1` returned a melting point of 114 to 116 °C. As to `CN(C)C(=O)c1ccc(C(=O)CSC(c2ccc(Cl)cc2)c2ccc(Cl)cc2)s1`, the melting point is 150 to 151 °C.

Take `CC(C)(C)C(=O)CS(=O)(=O)C(c1ccc(Cl)cc1)c1ccc(Cl)cc1`: the melting point lay within 128 to 130 °C. The same measure, in the same setting: the result for `O=C(CCc1ccccc1)CS(=O)(=O)C(c1ccc(Cl)cc1)c1ccc(Cl)cc1` reads 106 to 107 °C; that for `CC(=O)CCS(=O)(=O)C(c1ccc(Cl)cc1)c1ccc(Cl)cc1`, 103 to 105 °C; that for `CC(=O)OCC(=O)CS(=O)(=O)C(c1ccc(Cl)cc1)c1ccc(Cl)cc1`, 57 to 60 °C.

The compound `O=C(CC(F)(F)F)CS(=O)(=O)C(c1ccc(Cl)cc1)c1ccc(Cl)cc1` came in with a melting point of 48 to 50 °C.

For the compound `CC(C)Cc1ccc(C(c2ccc(Cl)cc2)S(=O)(=O)CC(=O)C(F)(F)F)cc1` (stereo not drawn), the melting point was 45 to 50 °C. Take `CCC(=O)CS(=O)(=O)C(c1ccc(Cl)cc1)c1ccc(Cl)cc1` [Example 2, 1-[Bis-(4-chloro-phenyl)-methanesulfonyl]-butan-2-one]: the IC50 in data set [1] (Homo sapiens, THP-1, 0.5 h) amounted to 7.65 µM; in data set [2], 7.37 µM.

Regarding `CC#CC(=O)CS(=O)(=O)C(c1ccc(Cl)cc1)c1ccc(Cl)cc1` [Example 6, 1-[Bis-(4-chloro-phenyl)-methanesulfonyl]-pent-3-yn-2-one], in data set [1] (setting [3]), the IC50 amounted to 1.34 µM. `O=C(COc1ccc(Cl)cc1)CS(=O)(=O)C(c1ccc(Cl)cc1)c1ccc(Cl)cc1` [Example 12, 1-[Bis-(4-chloro-phenyl)-methanesulfonyl]-3-(4-chloro-phenoxy)-propan-2-one] gave a melting point of 105 to 107 °C. The IC50 in data set [1] (setting [3]) turned out to be 8.15 µM.

The compound `Cn1ccnc1C(=O)CS(=O)(=O)C(c1ccc(Cl)cc1)c1ccc(Cl)cc1` [Example 16, 2-[Bis-(4-chloro-phenyl)-methanesulfonyl]-1-(1-methyl-1H-imidazol-2-yl)-ethanone] returned a melting point of 160 to 161 °C. The IC50 in data set [2] (setting [4]) came out at 12.7 µM. `CN(C)C(=O)c1ccc(C(=O)CS(=O)(=O)C(c2ccc(Cl)cc2)c2ccc(Cl)cc2)s1` [Example 18, 5-(2-[Bis-(4-chloro-phenyl)-methanesulfonyl]-acetyl)-thiophene-2-carboxylic acid dimethylamide]: the melting point is 192 to 194 °C. Also, the IC50 in data set [1] (setting [3]) came to 5.2 µM. In turn, `O=C(CS(=O)(=O)C(c1ccc(Cl)cc1)c1ccc(Cl)cc1)c1cccs1` [Example 19, 2-[Bis-(4-chloro-phenyl)-methanesulfonyl]-1-thiophen-2-yl-ethanone] returned a melting point of 150 to 151 °C. In addition, the IC50 in data set [2] (setting [4]) turned out to be 6.15 µM. Regarding `O=C(CC(=O)Nc1ccccc1Cl)CS(=O)(=O)C(c1ccc(Cl)cc1)c1ccc(Cl)cc1` [Example 23, 4-[Bis-(4-chloro-phenyl)-methanesulfonyl]-N-(2-chloro-phenyl)-3-oxo-butyramide], the melting point was in the range of 92 to 95 °C. In data set [1] (setting [3]), the IC50 was 1.52 µM.

In the case of `O=S(=O)(CC(O)(O)C(F)(F)F)C(c1ccc(C(F)(F)F)cc1)c1ccc(C(F)(F)F)cc1` [Example 29, 3-[Bis(4-trifluoromethyl-phenyl)methanesulfonyl]-1,1,1-trifluoropropane-2,2-diol], in data set [2] (setting [4]), the IC50 stood at 3 µM. As for `O=C(Cc1ccc(F)cc1)CS(=O)(=O)C(c1ccc(Cl)cc1)c1ccc(Cl)cc1` [Example 33, 1-[Bis-(4-chloro-phenyl)-methanesulfonyl]-3-(4-fluoro-phenyl)-propan-2-one], the melting point is 106 to 107 °C. Moreover, in data set [2] (setting [4]), the IC50 was determined as 14.5 µM. Consider `O=C(CS(=O)(=O)C(c1ccc(Cl)cc1)c1ccc(Cl)cc1)c1ccccn1` [Example 34, 2-[Bis-(4-chloro-phenyl)-methanesulfonyl]-1-pyridin-2-yl-ethanone], for which the melting point was in the range of 120 to 121 °C. The IC50 in data set [2] (setting [4]) was 4.25 µM.

Broadly, the melting point is the temperature, or range, at which the solid turns liquid. One may read the IC50 as the concentration at which inhibition is half-maximal.
